Results: ChEMBL document CHEMBL1201862, “PubChem BioAssay data set” (2004)
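Method: 48-hour compound exposure of cells in 96-well plates, five concentrations, linear interpolation of endpoints. GI50 is the concentration that inhibits growth by half.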 Calls of active or inactive are those of the source. Cut-off read from the data, not from the text of the source: active = GI50 up to about 1.1 µM and inactive = higher.

What was measured:
Experiment in all cases: NCI-60 cell line screen, 48 h
ACHN = system: ACHN
BT-549 = system: BT-549
CCRF-CEM = system: CCRF-CEM
EKVX = system: EKVX
HOP-92 = system: HOP-92
HT-29 = system: HT-29
Hs-578T = system: Hs-578T
K562 = system: K562
MDA-MB-435 = system: MDA-MB-435
MDA-N = system: MDA-N
NCI/ADR-RES = system: NCI/ADR-RES
OVCAR-5 = system: OVCAR-5
SK-MEL-5 = system: SK-MEL-5
SN12C = system: SN12C
SW-620 = system: SW-620
TK-10 = system: TK-10
U-251 = system: U-251
UACC-257 = system: UACC-257
UACC-62 = system: UACC-62
RXF 393 = system: RXF 393

| Compound | GI50 (ACHN) | GI50 (BT-549) | GI50 (CCRF-CEM) | GI50 (EKVX) | GI50 (HOP-92) | GI50 (HT-29) | GI50 (Hs-578T) | GI50 (K562) | GI50 (MDA-MB-435) | GI50 (MDA-N) | GI50 (NCI/ADR-RES) | GI50 (OVCAR-5) | GI50 (SK-MEL-5) | GI50 (SN12C) | GI50 (SW-620) | GI50 (TK-10) | GI50 (U-251) | GI50 (UACC-257) | GI50 (UACC-62) | GI50 (RXF 393) |
| --- | --- | --- | --- | --- | --- | --- | --- | --- | --- | --- | --- | --- | --- | --- | --- | --- | --- | --- | --- | --- |
| COc1ccc(-c2nnc(CCCCCCCCc3nnc(-c4ccc(OC)cc4)n3N)n2N)cc1 | > 100 µM (inactive) | 58.5 µM (inactive) | > 100 µM (inactive) | > 100 µM (inactive) | > 39.3 µM (inactive) | > 100 µM (inactive) | > 59 µM (inactive) | > 100 µM (inactive) | > 100 µM (inactive) | > 100 µM (inactive) | > 31.6 µM (inactive) | > 100 µM (inactive) | > 100 µM (inactive) | > 100 µM (inactive) | > 100 µM (inactive) | > 60 µM (inactive) | > 56.9 µM (inactive) | > 100 µM (inactive) | > 92 µM (inactive) |  |
| O=C1CC2CCC(C1)[S+]2[O-] (stereo unspecified) |  | > 100 µM (inactive) | > 100 µM (inactive) | > 100 µM (inactive) | > 100 µM (inactive) | > 100 µM (inactive) | > 100 µM (inactive) | > 100 µM (inactive) | > 100 µM (inactive) | > 100 µM (inactive) | > 100 µM (inactive) |  | > 100 µM (inactive) | > 100 µM (inactive) | > 100 µM (inactive) | > 100 µM (inactive) | > 100 µM (inactive) | > 100 µM (inactive) | > 100 µM (inactive) | > 100 µM (inactive) |
| COc1ccc(/C=C/c2nsc(/C=C/c3ccc(OC)cc3)n2)cc1 | > 100 µM (inactive) | > 100 µM (inactive) | 19.3 µM (inactive) | > 100 µM (inactive) | > 100 µM (inactive) | 36.5 µM (inactive) | > 100 µM (inactive) | 33.3 µM (inactive) | 85.1 µM (inactive) | > 100 µM (inactive) | > 100 µM (inactive) | > 100 µM (inactive) | > 100 µM (inactive) |  |  | > 100 µM (inactive) | 44.7 µM (inactive) | 41.4 µM (inactive) |  | > 100 µM (inactive) |
| COc1ccc2[nH]c3cc4c(=O)c5cc(OC)ccc5[nH]c4cc3c(=O)c2c1 | > 100 µM (inactive) | > 100 µM (inactive) |  | > 100 µM (inactive) | > 100 µM (inactive) | > 100 µM (inactive) | > 100 µM (inactive) | > 100 µM (inactive) | > 100 µM (inactive) | > 100 µM (inactive) | > 100 µM (inactive) | > 100 µM (inactive) | > 100 µM (inactive) | > 100 µM (inactive) | > 100 µM (inactive) | > 100 µM (inactive) | > 100 µM (inactive) | > 100 µM (inactive) | > 100 µM (inactive) | > 100 µM (inactive) |
| O=C1C=Cc2c1csc2Br | 30.7 µM (inactive) | 27.4 µM (inactive) | 16.9 µM (inactive) | 87.5 µM (inactive) |  | 96.8 µM (inactive) | 41.2 µM (inactive) | 26.5 µM (inactive) | 32.1 µM (inactive) | 50 µM (inactive) | 33.8 µM (inactive) | > 100 µM (inactive) | 69.3 µM (inactive) | > 100 µM (inactive) | 22.3 µM (inactive) | 65 µM (inactive) | 51.2 µM (inactive) | 67.3 µM (inactive) | 35.3 µM (inactive) | 71.4 µM (inactive) |
| CC(c1ccccc1)n1cncc1C(=O)NN1CCN(C)CC1 (stereo unspecified) | > 10 µM (inactive) | > 10 µM (inactive) | > 10 µM (inactive) | > 10 µM (inactive) |  | > 10 µM (inactive) | > 10 µM (inactive) | > 10 µM (inactive) | > 10 µM (inactive) | > 10 µM (inactive) | > 10 µM (inactive) | > 10 µM (inactive) | > 10 µM (inactive) | > 10 µM (inactive) | > 10 µM (inactive) | > 10 µM (inactive) | > 10 µM (inactive) | > 10 µM (inactive) | > 10 µM (inactive) | > 10 µM (inactive) |
| CN(C)CCNC(=O)c1cccc2c1Oc1c(cccc1[N+](=O)[O-])O2 | 0.335 µM (active) | 1.9 µM (inactive) | 0.371 µM (active) | 3.22 µM (inactive) |  | 1.41 µM (inactive) | 1.94 µM (inactive) | 1.45 µM (inactive) | 3.44 µM (inactive) | 2.78 µM (inactive) |  | 2.18 µM (inactive) | 1.28 µM (inactive) | 0.74 µM (active) | 1.06 µM (active) | 1.69 µM (inactive) | 0.787 µM (active) | 2 µM (inactive) | 0.419 µM (active) | 2.08 µM (inactive) |
| CC(=O)O[C@H]1C(=O)[C@@]2(C)C([C@H](OC(=O)c3ccccc3)[C@]3(O)C[C@H](OC(=O)[C@H](O)[C@@H](NC(=O)c4ccc(Cl)cc4)c4ccccc4)C(C)=C1C3(C)C)C1(OC(C)=O)CO[C@@H]1C[C@@H]2O (stereo partly specified) | 6.47 µM (inactive) | 0.0643 µM (active) | < 0.01 µM (active) | 9.2 µM (inactive) |  | 0.03 µM (active) | 0.0188 µM (active) | > 25 µM (inactive) | 0.00507 µM (active) | 0.00665 µM (active) | 14.9 µM (inactive) | 0.104 µM (active) | < 0.01 µM (active) | 0.182 µM (active) | 0.0569 µM (active) | 0.661 µM (active) | 0.092 µM (active) | 0.109 µM (active) | 0.0435 µM (active) | 1.02 µM (active) |
| CCc1ccccc1NC(=O)C(=O)CC(=O)c1sc(Nc2ccccc2Cl)nc1C | 30.5 µM (inactive) | 34.8 µM (inactive) | 18 µM (inactive) | 52.4 µM (inactive) |  | 22.1 µM (inactive) | 46.5 µM (inactive) | 29.4 µM (inactive) | 25.6 µM (inactive) | 28.8 µM (inactive) | 25.8 µM (inactive) | > 100 µM (inactive) | 17.6 µM (inactive) | 42.7 µM (inactive) | 25.6 µM (inactive) | 59.6 µM (inactive) | 32.5 µM (inactive) | 43.8 µM (inactive) | > 100 µM (inactive) | 24.9 µM (inactive) |
| COc1cccc(-c2cc(O)c3cc(OC)ccc3n2)c1 | 1.74 µM (inactive) | 0.392 µM (active) | 0.195 µM (active) | 0.92 µM (active) | 0.488 µM (active) | 0.33 µM (active) | 0.24 µM (active) | 0.128 µM (active) |  | 0.047 µM (active) | 0.173 µM (active) | 0.452 µM (active) | 0.182 µM (active) | 0.685 µM (active) | 0.281 µM (active) | 0.5 µM (active) | 0.305 µM (active) | 0.865 µM (active) | 0.182 µM (active) | 0.199 µM (active) |
| CCCCCCCCCCC(O)C1CCC(C2CCC(C(O)CCCCC(O)CCCCCC(O)CC3=CC(C)OC3=O)O2)O1 (stereo unspecified) | > 25 µM (inactive) | > 25 µM (inactive) |  | 4.09 µM (inactive) | > 25 µM (inactive) | 3.21 µM (inactive) | 4.75 µM (inactive) | > 6.9 µM (inactive) | > 25 µM (inactive) | 3.86 µM (inactive) | 2.46 µM (inactive) | > 25 µM (inactive) | 0.258 µM (active) | 9.48 µM (inactive) | > 25 µM (inactive) | > 25 µM (inactive) | > 25 µM (inactive) | 2.12 µM (inactive) | 1.2 µM (inactive) | > 17.2 µM (inactive) |
| C=C1C2CCC3C4(C)CCCC(C)(C(=O)O)C4CCC3(C2)C1OC(=O)/C(C)=C/C (stereo unspecified) | 36.1 µM (inactive) | 41.8 µM (inactive) | 53.2 µM (inactive) | 35.1 µM (inactive) | 25.6 µM (inactive) | 33.4 µM (inactive) | 35.2 µM (inactive) |  | 34 µM (inactive) | 22.6 µM (inactive) | 21.1 µM (inactive) | 28.4 µM (inactive) | 27.4 µM (inactive) | 23 µM (inactive) | 61.7 µM (inactive) | 72.8 µM (inactive) | 30.7 µM (inactive) | 39.7 µM (inactive) | 25.6 µM (inactive) | 15.9 µM (inactive) |
| C[C@@H]1CC[C@@H](C)[C@](C)(CCc2ccoc2)C/C=C\C=C/1C(=O)O | > 50 µM (inactive) | > 50 µM (inactive) | > 50 µM (inactive) | > 50 µM (inactive) | > 50 µM (inactive) | > 50 µM (inactive) | > 50 µM (inactive) | > 50 µM (inactive) |  | > 50 µM (inactive) | > 50 µM (inactive) | > 50 µM (inactive) | > 50 µM (inactive) | > 50 µM (inactive) | > 50 µM (inactive) | > 50 µM (inactive) | > 50 µM (inactive) | > 50 µM (inactive) | > 50 µM (inactive) | > 50 µM (inactive) |
| CC1(O)CC23CC1CCC2(C)C12CCCC(C)(C(=O)O1)C2CC3O (stereo unspecified) | > 100 µM (inactive) | > 100 µM (inactive) | > 100 µM (inactive) | > 100 µM (inactive) | > 100 µM (inactive) | > 100 µM (inactive) | > 100 µM (inactive) | > 100 µM (inactive) | > 100 µM (inactive) | > 100 µM (inactive) | > 100 µM (inactive) | > 100 µM (inactive) | > 100 µM (inactive) | > 100 µM (inactive) | > 100 µM (inactive) | > 100 µM (inactive) | > 100 µM (inactive) | > 100 µM (inactive) | > 100 µM (inactive) |  |
| COc1cccc2c1CCc1sc(CN3CCN(C)CC3)nc1-2 | > 100 µM (inactive) | > 100 µM (inactive) | 24.9 µM (inactive) | > 100 µM (inactive) |  | 20.4 µM (inactive) | > 100 µM (inactive) | 31.4 µM (inactive) | 63.5 µM (inactive) | 55.5 µM (inactive) | > 100 µM (inactive) | > 100 µM (inactive) | 28.1 µM (inactive) | > 100 µM (inactive) | > 100 µM (inactive) | > 100 µM (inactive) | > 100 µM (inactive) | > 100 µM (inactive) | 26.2 µM (inactive) | 6.84 µM (inactive) |
